Laboratory results from PubChem BioAssay (NCI).
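Briefly, cells in 96-well plates were exposed to five compound concentrations for 48 h, and endpoints were estimated by linear interpolation. The concentration for 50% growth inhibition is given as GI50. TGI marks complete inhibition of growth.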

Tests used:
Assay in all cases: NCI tumour cell line growth inhibition, 48 h
[1] = system: UACC-62 melanoma
[2] = system: NCI-H460 lung
[3] = system: EKVX NSCLC
[4] = system: OVCAR-3 ovarian
[5] = system: T-47D breast
[6] = system: SR leukemia
[7] = system: HOP-92 NSCLC
[8] = system: U251 CNS
[9] = system: HCC-2998 colon
[10] = system: SF-295 CNS
[11] = system: HCT-116 colon
[12] = system: SK-OV-3 ovarian
[13] = system: SF-539 CNS
[14] = system: HCT-15 colon
[15] = system: SN12C renal
[16] = system: MALME-3M melanoma
[17] = system: BT-549 breast
[18] = system: MDA-MB-435
[19] = system: HS 578T breast
[20] = system: KM12 colon
[21] = system: HL-60(TB) leukemia
[22] = system: OVCAR-5 ovarian
[23] = system: MCF7 breast
[24] = system: SK-MEL-2 melanoma
[25] = system: OVCAR-8 ovarian
[26] = system: NCI/ADR-RES ovarian
[27] = system: 786-0 renal
[28] = system: A549 NSCLC
[29] = system: MDA-MB-231 breast
[30] = system: UACC-257 melanoma
[31] = system: UO-31 renal
[32] = system: ACHN renal
[33] = system: HT29 colon
[34] = system: A498 renal
[35] = system: IGROV1 ovarian
[36] = system: NCI-H23 lung
[37] = system: DU-145 prostate
[38] = system: PC-3 prostate
[39] = system: MOLT-4 leukemia
[40] = system: K-562 leukemia
[41] = system: OVCAR-4 ovarian
[42] = system: M14 melanoma
[43] = system: NCI-H522 lung
[44] = system: HOP-62 NSCLC
[45] = system: CAKI-1 renal
[46] = system: SNB-19 CNS
[47] = system: COLO 205 colon
[48] = system: NCI-H226 lung
[49] = system: SF-268 CNS
[50] = system: RXF 393 renal
[51] = system: LOX IMVI melanoma
[52] = system: RPMI-8226 leukemia
[53] = system: SNB-75 CNS
[54] = system: TK-10 renal
[55] = system: SW-620 colon
[56] = system: CCRF-CEM leukemia
[57] = system: SK-MEL-5 melanoma

## c1cc(OCCN2CCCCCC2)ccc1CNc1ccc2nc(CCC3CCCCC3)[nH]c2c1
[1]
  GI50: 1.84 µM
  TGI: 3.35 µM
[2]
  GI50: 2.06 µM
  TGI: 4.64 µM
[3]
  GI50: 2.49 µM
  TGI: 9.58 µM
[4]
  GI50: 1.89 µM
  TGI: 4.25 µM
[5]
  GI50: 1.72 µM
  TGI: 4.79 µM
[6]
  GI50: 1.73 µM
  TGI: 5.34 µM
[7]
  GI50: 0.836 µM
  TGI: 3.09 µM
[8]
  GI50: 1.6 µM
  TGI: 3.17 µM
[9]
  GI50: 1.99 µM
  TGI: 3.98 µM
[10]
  GI50: 1.94 µM
  TGI: 3.82 µM
[11]
  GI50: 1.62 µM
  TGI: 3.14 µM
[12]
  GI50: 2.18 µM
  TGI: 4.84 µM
[13]
  GI50: 1.63 µM
  TGI: 3.11 µM
[14]
  GI50: 1.59 µM
  TGI: 3.67 µM
[15]
  GI50: 1.64 µM
  TGI: 4.57 µM
[16]
  GI50: 1.64 µM
  TGI: 3.1 µM
[17]
  GI50: 1.83 µM
  TGI: 5.54 µM
[18]
  GI50: 1.74 µM
  TGI: 3.35 µM
[19]
  GI50: 1.7 µM
  TGI: 4.94 µM
[20]
  GI50: 2.84 µM
  TGI: 9.07 µM
[21]
  GI50: 1.76 µM
  TGI: 3.8 µM
[22]
  GI50: 2.48 µM
  TGI: 7.33 µM
[23]
  GI50: 1.72 µM
  TGI: 4.12 µM
[24]
  GI50: 1.88 µM
  TGI: 3.63 µM
[25]
  GI50: 2.27 µM
  TGI: 6.34 µM
[26]
  GI50: 2.64 µM
  TGI: 8.66 µM
[27]
  GI50: 1.6 µM
  TGI: 3.29 µM
[28]
  GI50: 3.05 µM
  TGI: 11 µM
[29]
  GI50: 1.56 µM
  TGI: 2.97 µM
[30]
  GI50: 1.94 µM
  TGI: 4.12 µM
[31]
  GI50: 1.37 µM
  TGI: 2.72 µM
[32]
  GI50: 2.68 µM
  TGI: 7.97 µM
[33]
  GI50: 1.3 µM
  TGI: 3.49 µM
[34]
  GI50: 1.94 µM
  TGI: 4.95 µM
[35]
  GI50: 2.04 µM
  TGI: 7.31 µM
[36]
  GI50: 2.36 µM
  TGI: 6.62 µM
[37]
  GI50: 3.9 µM
  TGI: 14.6 µM
[38]
  GI50: 1.94 µM
  TGI: 4.84 µM
[39]
  GI50: 1.69 µM
  TGI: 6.74 µM
[40]
  GI50: 1.63 µM
  TGI: 4.61 µM
[41]
  GI50: 3.2 µM
  TGI: 13.8 µM
[42]
  GI50: 1.72 µM
  TGI: 3.32 µM
[43]
  GI50: 1.97 µM
  TGI: 4.34 µM
[44]
  GI50: 1.85 µM
  TGI: 3.81 µM
[45]
  GI50: 1.98 µM
  TGI: 4.05 µM
[46]
  GI50: 3.05 µM
  TGI: 11.4 µM
[47]
  GI50: 1.81 µM
  TGI: 3.57 µM
[48]
  GI50: 1.88 µM
  TGI: 5.19 µM
[49]
  GI50: 2.42 µM
  TGI: 9.2 µM
[50]
  GI50: 1.53 µM
  TGI: 4.4 µM
[51]
  GI50: 1.74 µM
  TGI: 3.2 µM
[52]
  GI50: 1.5 µM
  TGI: 3.79 µM
[53]
  GI50: 1.5 µM
  TGI: 4.52 µM
[54]
  GI50: 3.18 µM
  TGI: 10.9 µM
[55]
  GI50: 1.87 µM
  TGI: 4 µM
[56]
  GI50: 2.08 µM
  TGI: 10.1 µM
[57]
  GI50: 1.74 µM
  TGI: 3.17 µM
